Results reported in patent US12083084B2, “Method for enhancing energy production and metabolism in cells” (REPLICON HEALTH OY, priority 2013, dated 2024).

How the values were obtained:
[1] = cited from earlier work
[2] = test system: ethanol-dosed gastric cells; details: in vitro; cited from earlier work
peripheral leukocytes = assay: Gene expression from in vivo blood samples (TRAC); design: species or system human; details: for AOX1 gene expression, Change % / CYP1A2 gene expression, Change % / CYP2B6 gene expression, Change % / CYP2C9 gene expression, Change % / CYP3A4 gene expression, Change % / G6PD gene expression, Change % / GPD2 gene expression, Change % / GRHPR gene expression, Change % / HO-1 gene expression, Change % / MT-CO1 gene expression, Change % / MT-CYB gene expression, Change % / PGC-1a gene expression, Change %: S1 and S9 combined, vs control
Method: In the above 4.5 day experiment samples of peripheral leukocytes were collected from S1 and S9 in fasting condition (0 h), and also 1 hour (1 h) after taking 75 grams of glucose (Glutole, Biofile Pharma, 330 ml) for glucose tolerance test. Additional gene expression measurement was done from a separate 12 hour treatment for S1 and S9. In the 12 h test only two last doses of DGAcs were administered, first dose 12 h earlier than the blood sample, and the last/second dose 2.5 h earlier in the same morning (like in 4.5 day experiment). For the statin group, S10 and S11, only one gene expression measurement was done in two hours after the fasting blood sample. Leukocytes were immediately separated from blood samples, and after separation immediately lysed by stop solution and stored in freezer according to instructions by the service provider.
For S1 and S9 there were altogether 4 measurement points for gene expression, and only 3 repeats for each measurement. Results are presented in Table 6 below; changes of gene expressions compared to the control from peripheral leukocytes are presented. The Gene Expression analyses was conducted using TracTechnology by PlexPress Ltd in Helsinki. The TRAC data presented in Table 6 has been generated according to process instructions with quality tested instruments and reagents. PlexPress Quality Management System is set up according to the ISO 9001 standard. P-values are from t-distribution of a one sided test of deviation from control average, and are presented only when below 10%.

[3] = 12 hour + 0 h test (two doses, fasting)
[4] = 12 hour + 1 h test (1 h after 75 g glucose)
[5] = 4.5 day + 1 h test (1 h after 75 g glucose)

Q: For `O=C(O)[C@H](O)CO` [DGA, D-glyceric acid], which solubility [1] is on record?
A: readily soluble in water and alcohol

Q: And the “viability of ethanol-dosed gastric cells” value [2]?
A: increase viability

Q: Which results are given for `O.O.O=C([O-])[C@H](O)CO.O=C([O-])[C@H](O)CO.[Ca+2]` [DGAcs, D-glyceric acid, calcium salt dehydrate]?
A: AOX1 gene expression, Change % (peripheral leukocytes; [3]): −6%; CYP1A2 gene expression, Change % (peripheral leukocytes; [3]): 100%; CYP2B6 gene expression, Change % (peripheral leukocytes; [3]): −14%; CYP2C9 gene expression, Change % (peripheral leukocytes; [3]): 8%; CYP3A4 gene expression, Change % (peripheral leukocytes; [3]): −17%; G6PD gene expression, Change % (peripheral leukocytes; [3]): 3%; GPD2 gene expression, Change % (peripheral leukocytes; [3]): 24%; GRHPR gene expression, Change % (peripheral leukocytes; [3]): −26%; HO-1 gene expression, Change % (peripheral leukocytes; [3]): −31%; MT-CO1 gene expression, Change % (peripheral leukocytes; [3]): −10%; MT-CYB gene expression, Change % (peripheral leukocytes; [3]): −2%; PGC-1a gene expression, Change % (peripheral leukocytes; [3]): −3%; AOX1 gene expression, Change % (peripheral leukocytes; [4]): 8%; CYP2B6 gene expression, Change % (peripheral leukocytes; [4]): 8%; CYP2C9 gene expression, Change % (peripheral leukocytes; [4]): 18%; CYP3A4 gene expression, Change % (peripheral leukocytes; [4]): −45%; G6PD gene expression, Change % (peripheral leukocytes; [4]): 18%; GPD2 gene expression, Change % (peripheral leukocytes; [4]): 23%; GRHPR gene expression, Change % (peripheral leukocytes; [4]): 6%; HO-1 gene expression, Change % (peripheral leukocytes; [4]): −54%; MT-CO1 gene expression, Change % (peripheral leukocytes; [4]): 4%; MT-CYB gene expression, Change % (peripheral leukocytes; [4]): 2%; PGC-1a gene expression, Change % (peripheral leukocytes; [4]): −21%; CYP1A2 gene expression, Change % (peripheral leukocytes; 4.5 day + 0 h test (fasting)): 62%; CYP2B6 gene expression, Change % (peripheral leukocytes; 4.5 day + 0 h test (fasting)): 73%; CYP2C9 gene expression, Change % (peripheral leukocytes; 4.5 day + 0 h test (fasting)): 0%; CYP3A4 gene expression, Change % (peripheral leukocytes; 4.5 day + 0 h test (fasting)): 67%; G6PD gene expression, Change % (peripheral leukocytes; 4.5 day + 0 h test (fasting)): 9%; GPD2 gene expression, Change % (peripheral leukocytes; 4.5 day + 0 h test (fasting)): 31%; GRHPR gene expression, Change % (peripheral leukocytes; 4.5 day + 0 h test (fasting)): 70%; HO-1 gene expression, Change % (peripheral leukocytes; 4.5 day + 0 h test (fasting)): 82%; MT-CO1 gene expression, Change % (peripheral leukocytes; 4.5 day + 0 h test (fasting)): 24%; MT-CYB gene expression, Change % (peripheral leukocytes; 4.5 day + 0 h test (fasting)): 22%; CYP1A2 gene expression, Change % (peripheral leukocytes; [5]): 14%; CYP2B6 gene expression, Change % (peripheral leukocytes; [5]): 147%; CYP2C9 gene expression, Change % (peripheral leukocytes; [5]): 46%; CYP3A4 gene expression, Change % (peripheral leukocytes; [5]): 69%; G6PD gene expression, Change % (peripheral leukocytes; [5]): −13%; GPD2 gene expression, Change % (peripheral leukocytes; [5]): 0%; GRHPR gene expression, Change % (peripheral leukocytes; [5]): 100%; HO-1 gene expression, Change % (peripheral leukocytes; [5]): 110%; MT-CO1 gene expression, Change % (peripheral leukocytes; [5]): 23%; MT-CYB gene expression, Change % (peripheral leukocytes; [5]): 21%; PGC-1a gene expression, Change % (peripheral leukocytes; [5]): 30%; CYP3A4 gene expression vs control (peripheral leukocytes; S10, statin group): statistically significantly up regulated; increase in HO-1 gene expression (peripheral leukocytes; S10, statin group (halved dose of Simvastatin), 4.5 day): 160%; AOX1 gene expression increased by (peripheral leukocytes; S10, statin group, 4.5 day panel): 56%
